How the values were obtained:
steroid sulfatase [1] = target: T1, steroid sulfatase (Homo sapiens, UniProt P08842); assay: Steroid sulfatase inhibition in cell extracts (HaCaT keratinocytes or 1BR3GN fibroblasts, [3H]-DHEAS cleavage); assay type: biochemical; set-up: the supernatant which contains the solubilized enzyme is removed and stored at 4°; endogenous in cells; host or cells: HaCaT keratinocytes or 1BR3GN fibroblasts (microsomal extract); details: solubilized enzyme from HaCaT or 1BR3GN cells, 50 μM DHEAS, 30 minutes at 37°; depending on the enzyme concentration used
T1 sequence (P08842 22-583): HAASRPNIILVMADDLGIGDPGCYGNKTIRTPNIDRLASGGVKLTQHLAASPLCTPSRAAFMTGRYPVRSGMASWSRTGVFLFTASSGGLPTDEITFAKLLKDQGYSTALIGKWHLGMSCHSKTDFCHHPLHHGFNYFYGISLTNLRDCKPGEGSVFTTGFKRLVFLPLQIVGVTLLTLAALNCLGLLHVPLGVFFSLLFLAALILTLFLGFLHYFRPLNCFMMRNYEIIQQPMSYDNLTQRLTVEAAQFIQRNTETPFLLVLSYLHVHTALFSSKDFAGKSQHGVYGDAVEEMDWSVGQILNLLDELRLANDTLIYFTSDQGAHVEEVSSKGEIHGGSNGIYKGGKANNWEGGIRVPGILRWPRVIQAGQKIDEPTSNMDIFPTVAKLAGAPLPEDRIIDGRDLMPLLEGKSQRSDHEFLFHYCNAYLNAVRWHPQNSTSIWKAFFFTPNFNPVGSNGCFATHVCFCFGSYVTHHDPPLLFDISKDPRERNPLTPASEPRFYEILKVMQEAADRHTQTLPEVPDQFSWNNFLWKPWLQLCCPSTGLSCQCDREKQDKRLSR
Description: Steroid Sulfatase Inhibition in Cell Extracts
Human keratinocytes (HaCaT) or human skin-derived fibroblasts (1BR3GN) are grown to confluency using standard cell culture techniques. Cells are harvested by trypsinization, washed once with phosphate-buffered saline (PBS) and suspended in 20 mM Tris-HCl, pH 8.0. The suspension is sonicated and then centrifuged at 12000 g for 30 minutes. The supernatant is subjected to ultracentrifugation at 100000 g for 60 minutes. The resulting microsomal pellet is resuspended in buffer containing 0.1% Triton X-100 v/v and left standing for 30 minutes. After additional centrifugation at 100000 g for 30 minutes the supernatant which contains the solubilized enzyme is removed and stored at 4°.
For assay of the enzymatic activity 10 μl of enzyme solution are added to 100 μl of 50 μM dehydroepiandrosterone sulfate (DHEAS) containing approximately 60000 dpm [^3H]-DHEAS (21 Ci/mmol) in 0.1 M Tris-HCl, pH 7.5; 0.1% v/v Triton X-100. Test compound is included at various concentrations added from stock solutions in DMSO. After incubation for 30 minutes at 37°, 250 μl of 1N NaOH are added. The mixture is extracted with 1 ml of toluene. 800 μl of the organic layer are subjected to liquid scintillation counting to determine the fraction of substrate that has been cleaved to dehydroepiandrosterone (DHEA).

steroid sulfatase [2] = target: T1, steroid sulfatase; assay: Steroid sulfatase inhibition in vitro (purified enzyme, 4-methylumbelliferyl sulfate cleavage, fluorescence); details: purified human placental steroid sulfatase, 0.5 mM 4-methylumbelliferyl sulfate, 37°, 1 hour; reference determined in parallel
Description: Steroid Sulfatase Inhibition in vitro
a) Purification of Human Steroid Sulfatase
Human placenta is obtained fresh after delivery and stripped of membranes and connective tissues. For storage the material is frozen at −70°. After thawing, all further steps are carried out at 4°, while pH values are adjusted at 20°. 400 g of tissue are homogenized in 1.2 l of buffer A (50 mM Tris-HCl, pH 7.4; 0.25M sucrose). The homogenate is centrifuged at 10,000 g for 45 minutes. The supernatant is set aside and the pellet re-homogenized in 500 ml of buffer A. After centrifugation the two supernatants are combined and subjected to ultracentrifugation (100,000 g, 1 hour). The pellet is resuspended in buffer A and the centrifugation repeated. The pellet is suspended in 50 ml of 50 mM Tris-HCl, pH 7.4 and stored at −20° until further work-up.
After thawing, microsomes are collected by ultracentrifugation as described above and suspended in 50 ml of buffer B (10 mM Tris-HCl, pH 7.0; 1 mM EDTA; 2 mM 2-mercaptoethanol; 1% Triton X-100 v/v; 0.1% aprotinin v/v). After 1 hour on ice with gentle agitation the suspension is centrifuged (100,000 g, 1 hour). […]
Purified human steroid sulfatase also readily cleaves aryl sulfates such as 4-methylumbelliferyl sulfate. […]
Plates are incubated at 37° for 1 hour. […] Fluorescence intensity is measured (Titertek Fluoroskan II) with λex=355 nm and λem=460 nm. […]

[3] = target: T2, steroid sulfatase in HaCaT keratinocytes (Homo sapiens, UniProt P08842); assay: Steroid sulfatase inhibition in HaCaT cells incubated with DHEAS; assay type: cell-based; details: intact HaCaT keratinocytes, 0.3 μM DHEAS, 96 hours
T2 construct: HaCaT keratinocytes are cultivated in Dulbecco's modification of Eagle's medium (DMEM); endogenous in cells; host or cells: HaCaT keratinocytes
T2 sequence (P08842 22-583): T1 sequence (P08842 22-583)
Description: Steroid Sulfatase Inhibition in HaCaT Cells Incubated with DHEAS
HaCaT keratinocytes are cultivated in Dulbecco's modification of Eagle's medium (DMEM) supplemented with 10% v/v fetal calf serum (FCS). They are grown to confluency and then harvested by trypsinization. Approximately 2×10^6 cells are dispensed into 9.6 cm^2 dishes and incubated in medium containing FCS until confluency is reached. Then the medium is changed to serum-free DMEM (1.5 ml per well); 0.3 μM DHEAS is included as substrate with 1.5 μCi/well [^3H]-DHEAS (21 Ci/mmol) as tracer. Incubation is continued for 96 hours. […] In parallel, DHEAS is also incubated with medium without cells as a control for non-enzymatic hydrolysis. After incubation, the supernatant is removed and 1 ml is extracted with 4 ml of toluene. 3 ml of the organic layer are collected and the solvent evaporated in vacuo. The residue is taken up in acetonitrile. 10 μg DHEA is included as carrier. The extract is analysed by high performance liquid chromatography (HPLC) using a RP C-8 column and isocratic elution with 10 mM ammonium sulfate pH 6/acetonitrile (60/40), at a flow rate of 1 ml/min. The amount of DHEA cleaved during incubation is calculated from the area of the corresponding radioactive peak determined by continuous monitoring with a radiodetector equipped with a flow-cell.

| melting point [°C] | Structure (SMILES) | IC50 (steroid sulfatase [1]) [nM] | IC50 (steroid sulfatase [2]) [nM] | IC50 [3] [nM] |
| --- | --- | --- | --- | --- |
| 83 to 85 | CN(C)S(=O)(=O)Oc1ccc2oc(C(C)(C)C)cc(=O)c2c1 [Example 9, N,N-Dimethylsulfamic acid 2-t-butyl-4H-chromen-4-on-6-yl ester] |  |  |  |
|  | C[C@]12CC[C@@H]3c4ccc(OS(N)(=O)=O)cc4CC[C@H]3[C@@H]1CCC2=O [Estrone-3-O-sulfamate] | 1 to 5 | ~60 | ~0.1 |
